Laboratory results: patent US5084453A, “1-carboxy-1-vinyloxyimino aminothiazole cephalosporin derivatives” (priority 1988, dated 1992)
≈ marks a conversion by molar mass, not a printed value. Read-outs that look alike come from different tables or passages of the source.

How the values were obtained:
Assay in all cases: in vitro antibacterial activity, agar plate dilution method
Assay type in all cases: cell-based
[1] = test system: A. calcoaceticus No. 4
Description: (§1) Now, the in vitro antibacterial activities of the compounds of the present invention against various microorganisms, were measured by the following agar plate dilution method.
(§2) One platinum loopfull of each test microorganism incubated overnight in Mueller Hinton broth, was inoculated to Mueller Hinton agar (MH agaer). Such culture media containing various antibiotics in various concentrations were prepared. After incubation at 37° C. for 16 hours, the minimum inhibitory concentrations (MIC μg/ml) were measured.

[2] = test system: E. cloacae 963
Description: as §1, §2

[3] = test system: E. cloacae Nek 39*; settings: 10^6 CFU/ml, β-Lactamase-producing strain, 37° C., 16 hours
Description: as §1, §2

[4] = test system: E. coli CSH(RE45)*; settings: 10^6 CFU/ml, β-Lactamase-producing strain, 37° C., 16 hours
Description: as §1, §2

[5] = test system: E. coli CSH2(RK1)*; settings: Escherichia coli, 16 h
Description: as §1, §2

[6] = test system: E. coli GN5482*
Description: as §1, §2

[7] = test system: E. coli NIHJ JC2; settings: 10^6 CFU/ml, Mueller Hinton agar, 37° C., 16 hours
Description: as §1, §2

[8] = test system: K. oxytoca GN10650*
Description: as §1, §2

[9] = test system: K. pneumoniae No. 42*
Description: as §1, §2

[10] = test system: K. pneumoniae PC1-602
Description: as §1, §2

[11] = test system: M. morganii GN5407*
Description: as §1, §2

[12] = test system: P. vulgaris HX-19; settings: 10^6 CFU/ml, Mueller Hinton agar, 37° C., 16 hours
Description: as §1, §2

[13] = test system: P. vulgaris No. 33*
Description: as §1, §2

[14] = test system: Ps. aeruginosa AK 109
Description: as §1, §2

[15] = test system: Ps. aeruginosa AKR17; settings: 10^6 CFU/ml, Mueller Hinton agar, 37° C., 16 hours
Description: as §1, §2

[16] = test system: Ps. aeruginosa IFO3445
Description: as §1, §2

[17] = test system: Ps. cepacia 23
Description: as §1, §2

[18] = test system: S. aureus 209P NIHJ-JC1
Description: as §1, §2

[19] = test system: S. marcescens IAM 1184
Description: as §1, §2

[20] = test system: S. marcescens No. 16-2*
Description: as §1, §2

[21] = Enterobacter cloacae, read-out: MIC
[22] = Escherichia coli, read-out: MIC
[23] = Escherichia coli, NIHJJC2, read-out: MIC
[24] = Proteus vulgaris, HX19, read-out: MIC
[25] = Proteus vulgaris, 10^6 CFU/ml, β-Lactamase-producing strain, 37° C., 16 hours, read-out: MIC
[26] = Pseudomonas aeruginosa, AKR17, read-out: MIC
[27] = Pseudomonas aeruginosa, IFO3445, 16 h
[28] = Burkholderia cepacia, 23, 10^6 CFU/ml, Mueller Hinton agar, 37° C., 16 hours, read-out: MIC
[29] = Staphylococcus aureus, 10^6 CFU/ml, Mueller Hinton agar, 37° C., 16 hours, read-out: MIC
[30] = Acinetobacter calcoaceticus, NO.4, 10^6 CFU/ml, Mueller Hinton agar, 37° C., 16 hours, read-out: MIC
[31] = Enterobacter cloacae, 963, 16 h
[32] = Klebsiella oxytoca, GN10650, 16 h
[33] = Klebsiella pneumoniae, PC1602, 16 h
[34] = Morganella morganii, GN5407, 16 h
[35] = Pseudomonas aeruginosa, AK109, 10^6 CFU/ml, Mueller Hinton agar, 37° C., 16 hours, read-out: MIC
[36] = Serratia marcescens, IAM1184, 16 h
[37] = Serratia marcescens, 10^6 CFU/ml, β-Lactamase-producing strain, 37° C., 16 hours, read-out: MIC
[38] = 10^6 CFU/ml, Mueller Hinton agar, 37° C., 16 hours
[39] = 10^6 CFU/ml, β-Lactamase-producing strain, 37° C., 16 hours

C=C(O/N=C(\C(=O)N[C@@H]1C(=O)N2C(C(=O)O)=C(CSc3nnc(-c4ccc(O)c(O)c4)o3)CS[C@H]12)c1csc(N)n1)C(=O)O [Example 11, disodium 7β-[2-(2-aminothiazol-4-yl)-2-(1-carboxy-1-vinyloxyimino)acetamido]-3-[5-(3,4-dihydroxyphenyl)-1,3,4-oxadiazol-2-yl]thiomethyl-3-cephem-4-carboxylate (syn-isomer)]
MIC ([1]; Acinetobacter calcoaceticus, NO.4, 16 h): 0.1 µg/mL | MIC ([2]; Enterobacter cloacae, 963, 10^6 CFU/ml, Mueller Hinton agar, 37° C., 16 hours, read-out: MIC): 0.025 µg/mL | MIC [3, 21]: 0.025 µg/mL | MIC [4, 22]: 0.05 µg/mL | MIC [5]: < 0.006 µg/mL | MIC ([6]; Escherichia coli, GN5482, 16 h): 0.1 µg/mL | MIC [7, 23]: 0.05 µg/mL | MIC ([8]; Klebsiella oxytoca, GN10650, 10^6 CFU/ml, β-Lactamase-producing strain, 37° C., 16 hours, read-out: MIC): 0.025 µg/mL | MIC ([9]; Klebsiella pneumoniae, 10^6 CFU/ml, β-Lactamase-producing strain, 37° C., 16 hours, read-out: MIC): 0.025 µg/mL | MIC ([10]; Klebsiella pneumoniae, PC1602, 10^6 CFU/ml, Mueller Hinton agar, 37° C., 16 hours, read-out: MIC): < 0.006 µg/mL | MIC ([11]; Morganella morganii, GN5407, 10^6 CFU/ml, β-Lactamase-producing strain, 37° C., 16 hours, read-out: MIC): 0.0125 µg/mL | MIC [12, 24]: < 0.006 µg/mL | MIC [13, 25]: 0.0125 µg/mL | MIC ([14]; Pseudomonas aeruginosa, AK109, 16 h): 0.2 µg/mL | MIC [15, 26]: 3.12 µg/mL | MIC [16, 27]: 0.39 µg/mL | MIC [17, 28]: < 0.006 µg/mL | MIC [18, 29]: 12.5 µg/mL | MIC ([19]; Serratia marcescens, IAM1184, 10^6 CFU/ml, Mueller Hinton agar, 37° C., 16 hours, read-out: MIC): 0.025 µg/mL | MIC ([20]; Serratia marcescens, 16 h): 0.2 µg/mL

C=C(O/N=C(\C(=O)N[C@@H]1C(=O)N2C(C(=O)O)=C(CSc3nnnn3CC(=O)O)CS[C@H]12)c1csc(N)n1)C(=O)O [Example 20, trisodium 7β-[2-(2-aminothiazol-4-yl)-2-(1-carboxylato-1-vinyloxyimino)acetamido]-3-(1-carboxylatomethyl-1H-tetrazol-5-yl)thiomethyl-3-cephem-4-carboxylate (syn-isomer)]
MIC [1, 30]: 100 µg/mL | MIC [2, 31]: 0.39 µg/mL | MIC [3, 21]: 3.12 µg/mL | MIC [4, 22]: 0.78 µg/mL | MIC [5]: 0.2 µg/mL | MIC ([6]; Escherichia coli, GN5482, 16 h): 1.56 µg/mL | MIC [7, 23]: 0.39 µg/mL | MIC [8, 32]: 0.39 µg/mL | MIC ([9]; Klebsiella pneumoniae, 16 h): 0.78 µg/mL | MIC [10, 33]: 0.1 µg/mL | MIC [11, 34]: 0.05 µg/mL | MIC [12, 24]: < 0.006 µg/mL | MIC [13, 25]: < 0.006 µg/mL | MIC [14, 35]: 12.5 µg/mL | MIC [15, 26]: > 100 µg/mL | MIC [16, 27]: 6.25 µg/mL | MIC [17, 28]: 3.12 µg/mL | MIC [18, 29]: 25 µg/mL | MIC [19, 36]: 0.05 µg/mL | MIC [20, 37]: 3.12 µg/mL

C=C(O/N=C(\C(=O)N[C@@H]1C(=O)N2C(C(=O)[O-])=C(C[n+]3cccc(C(=O)O)c3)CS[C@H]12)c1csc(N)n1)C(=O)O [Example 3, 7β-[2-(2-aminothiazol-4-yl)-2-(1-carboxy-1-vinyloxyimino)acetamido]-3-(3-carboxy-1-pyridinio)methyl-3-cephem-4-carboxylate (syn-isomer)]
MIC [1, 30]: 25 µg/mL (≈ 43.5 µM) | MIC [2, 31]: 0.1 µg/mL (≈ 0.174 µM) | MIC [3, 21]: 3.12 µg/mL (≈ 5.43 µM) | MIC [4, 22]: 0.05 µg/mL (≈ 0.087 µM) | MIC [5]: 0.05 µg/mL (≈ 0.087 µM) | MIC ([6]; Escherichia coli, GN5482, 10^6 CFU/ml, β-Lactamase-producing strain, 37° C., 16 hours, read-out: MIC): 3.12 µg/mL (≈ 5.43 µM) | MIC [7, 23]: 0.2 µg/mL (≈ 0.348 µM) | MIC [8, 32]: 0.2 µg/mL (≈ 0.348 µM) | MIC ([9]; Klebsiella pneumoniae, 16 h): 0.39 µg/mL (≈ 0.679 µM) | MIC [10, 33]: 0.025 µg/mL (≈ 0.0435 µM) | MIC [11, 34]: 0.05 µg/mL (≈ 0.087 µM) | MIC [12, 24]: 0.0125 µg/mL (≈ 0.0218 µM) | MIC ([13]; Proteus vulgaris, 16 h): 0.05 µg/mL (≈ 0.087 µM) | MIC [14, 35]: 100 µg/mL (≈ 174 µM) | MIC [15, 26]: > 100 µg/mL | MIC [16, 27]: 6.25 µg/mL (≈ 10.9 µM) | MIC ([17]; Burkholderia cepacia, 23, 16 h): 6.25 µg/mL (≈ 10.9 µM) | MIC ([18]; Staphylococcus aureus, 16 h): 6.25 µg/mL (≈ 10.9 µM) | MIC [19, 36]: 0.05 µg/mL (≈ 0.087 µM) | MIC [20, 37]: 3.12 µg/mL (≈ 5.43 µM)

C=C(ON=C(C(=O)N[C@@H]1C(=O)N2C(C(=O)[O-])=C(C[n+]3ccccc3)CS[C@H]12)c1csc(N)n1)C(=O)O (single isomer, unassigned) [Example 1, 7β-[2-(2-aminothiazol-4-yl)-2-(1-carboxy-1-vinyloxyimino)acetamido]-3-(1-pyridinio)methyl-3-cephem-4-carboxylate (syn-isomer)]
MIC [1, 38]: 12.5 µg/mL (≈ 23.6 µM) | MIC [2, 38]: 0.025 µg/mL (≈ 0.0471 µM) | MIC [3]: 0.39 µg/mL (≈ 0.735 µM) | MIC [4]: 0.025 µg/mL (≈ 0.0471 µM) | MIC [6, 39]: 0.2 µg/mL (≈ 0.377 µM) | MIC [7]: 0.025 µg/mL (≈ 0.0471 µM) | MIC [8, 39]: 0.1 µg/mL (≈ 0.188 µM) | MIC [9, 39]: 0.1 µg/mL (≈ 0.188 µM) | MIC [10, 38]: < 0.006 µg/mL | MIC [11, 39]: 0.0125 µg/mL (≈ 0.0236 µM) | MIC [12]: 0.0125 µg/mL (≈ 0.0236 µM) | MIC [13, 39]: 0.0125 µg/mL (≈ 0.0236 µM) | MIC [14, 38]: 1.56 µg/mL (≈ 2.94 µM) | MIC [15]: > 100 µg/mL | MIC [16, 38]: 0.78 µg/mL (≈ 1.47 µM) | MIC [17, 38]: 3.12 µg/mL (≈ 5.88 µM) | MIC [18, 38]: 3.12 µg/mL (≈ 5.88 µM) | MIC [19, 38]: < 0.006 µg/mL | MIC [20, 39]: 0.78 µg/mL (≈ 1.47 µM)
